The NIST ThermoML archive (doi:10.1021/je060271a)
Values joined by “and” are separate entries in the source; they are usually repeats but may differ in a detail not shown here. Equal values may be shown once.

Settings: 303.16 K, Liquid, Vibrating tube method

CCCCCC(=O)OCC(COC(=O)CCCCC)(COC(=O)CCCCC)COC(=O)CCCCC [pentaerythritol tetrahexanoate]
Settings	mass density
10818 kPa	995.1 kg/m3
10847 kPa	995.1 kg/m3
10876 kPa	995.3 kg/m3
10911 kPa	995.2 kg/m3
10941 kPa	995.3 kg/m3
10972 kPa	995.3 kg/m3
11002 kPa	995.2 kg/m3
11031 kPa	995.3 kg/m3
11066 kPa	995.3 kg/m3
11454 kPa	995.6 kg/m3
11487 kPa	995.6 kg/m3
11513 kPa	995.6 kg/m3
11540 kPa	995.6 kg/m3
11571 kPa	995.7 kg/m3
11596 kPa	995.6 kg/m3
11626 kPa	995.6 kg/m3
11790 kPa	995.8 kg/m3
11810 kPa	995.6 kg/m3
11820 kPa	995.9 kg/m3
11829 kPa	995.8 kg/m3
11924 kPa	995.8 kg/m3
11933 kPa	995.7 kg/m3
11944 kPa	995.8 kg/m3
11958 kPa	995.9 kg/m3
11979 kPa	995.9 kg/m3
11996 kPa	996 kg/m3
12017 kPa	996 kg/m3
12842 kPa	996.5 kg/m3
12884 kPa	996.5 kg/m3
13029 kPa	996.6 kg/m3
13048 kPa	996.5 kg/m3
13072 kPa	996.5 kg/m3
13092 kPa	996.6 kg/m3
13112 kPa	996.6 kg/m3
13136 kPa	996.7 kg/m3
13156 kPa	996.5 kg/m3
13176 kPa	996.6 kg/m3
13200 kPa	996.7 kg/m3
13220 kPa	996.6 kg/m3
13241 kPa	996.7 kg/m3
13266 kPa	996.7 kg/m3
13286 kPa	996.7 kg/m3
14924 kPa	997.7 kg/m3
14953 kPa	997.6 kg/m3
14977 kPa	997.7 kg/m3
15002 kPa	997.7 kg/m3
15135 kPa	997.8 kg/m3
15160 kPa	997.8 kg/m3
15189 kPa	997.8 kg/m3
15214 kPa	997.8 kg/m3
15239 kPa	997.8 kg/m3
15264 kPa	997.9 kg/m3
15318 kPa	997.9 kg/m3
15342 kPa	997.9 kg/m3
15371 kPa	997.9 kg/m3
15394 kPa	997.9 kg/m3
15422 kPa	997.9 kg/m3
15445 kPa	998 kg/m3
15468 kPa	998 kg/m3
15492 kPa	998 kg/m3
15520 kPa	998 kg/m3
15543 kPa	998 kg/m3
15567 kPa	997.9 kg/m3
15595 kPa	998 kg/m3
15618 kPa	998 kg/m3
15865 kPa	998.4 kg/m3
16816 kPa	998.8 kg/m3
17240 kPa	999 kg/m3
17241 kPa	999 kg/m3
17243 kPa	999 kg/m3
17245 kPa	999 kg/m3
17258 kPa	999.1 kg/m3
17279 kPa	999 kg/m3
17302 kPa	999 kg/m3
17313 kPa	999 kg/m3
17343 kPa	999.1 kg/m3
17353 kPa	999.1 kg/m3 and 999 kg/m3
17354 kPa	999.1 kg/m3 and 999.2 kg/m3
17601 kPa	999.3 kg/m3
17625 kPa	999.2 kg/m3
17654 kPa	999.2 kg/m3
17675 kPa	999.2 kg/m3
17704 kPa	999.3 kg/m3
17727 kPa	999.3 kg/m3
17750 kPa	999.5 kg/m3
17777 kPa	999.3 kg/m3
17799 kPa	999.3 kg/m3
17825 kPa	999.3 kg/m3
17847 kPa	999.3 kg/m3
17869 kPa	999.3 kg/m3
17891 kPa	999.4 kg/m3
18682 kPa	999.8 kg/m3
18706 kPa	999.9 kg/m3
18735 kPa	999.9 kg/m3
18759 kPa	999.9 kg/m3
18784 kPa	999.9 kg/m3
18808 kPa	1000 kg/m3
18838 kPa	999.9 kg/m3
18862 kPa	1000 kg/m3
18892 kPa	1000 kg/m3
23429 kPa	1002.6 kg/m3
23459 kPa	1002.6 kg/m3
23495 kPa	1002.6 kg/m3
23525 kPa	1002.6 kg/m3
23561 kPa	1002.7 kg/m3
23592 kPa	1002.6 kg/m3
23622 kPa	1002.8 kg/m3
23653 kPa	1002.7 kg/m3
23690 kPa	1002.8 kg/m3
23720 kPa	1002.8 kg/m3
23757 kPa	1002.7 kg/m3
23788 kPa	1002.8 kg/m3
23820 kPa	1002.9 kg/m3
23856 kPa	1002.8 kg/m3
23888 kPa	1002.8 kg/m3
23920 kPa	1002.9 kg/m3
23958 kPa	1002.9 kg/m3
23990 kPa	1002.8 kg/m3
24022 kPa	1002.9 kg/m3
24054 kPa	1002.8 kg/m3
24093 kPa	1003 kg/m3
24125 kPa	1003 kg/m3
24164 kPa	1003 kg/m3
24196 kPa	1003.1 kg/m3
24226 kPa	1003 kg/m3
24255 kPa	1003.1 kg/m3
24419 kPa	1003.2 kg/m3
24447 kPa	1003.2 kg/m3
24481 kPa	1003.2 kg/m3
24509 kPa	1003.2 kg/m3
24537 kPa	1003.1 kg/m3
24571 kPa	1003.3 kg/m3
24599 kPa	1003.3 kg/m3
24628 kPa	1003.3 kg/m3
24656 kPa	1003.4 kg/m3
24691 kPa	1003.3 kg/m3
24720 kPa	1003.3 kg/m3
24749 kPa	1003.3 kg/m3
24778 kPa	1003.3 kg/m3
24812 kPa	1003.4 kg/m3
24935 kPa	1003.4 kg/m3
25029 kPa	1003.4 kg/m3
25058 kPa	1003.4 kg/m3
25094 kPa	1003.6 kg/m3
